Laboratory results as given in patent publication US4605641A, “Synthetic vasoactive intestinal peptide analogs” (Hoffmann-La Roche Inc., priority 1984, dated 1986).
Peptide text beside a SMILES is read from it.

Test system: guinea pig trachea smooth muscle
Assay: Bronchodilator (relaxant) effect on isolated guinea pig tracheal rings
Format: cell-based
Settings: for Relative Potency: guinea pig trachea, relative to VIP = 100%; for EC50: guinea pig tracheal rings, relaxation as % of maximum response to VIP 10^-6 M, three tissues pooled, linear regression, read-out: EC50 (M), agonist activity, bronchodilator effect
Text: The bronchodilatory effect of VIP analogs was studied in a model utilizing guinea pig trachea. Wasserman, M. A. et al. "Comparative In Vitro Tracheal Relaxant Effects of Porcine and Hen VIP" in Vasoactive Intestinal Peptide ed. Said, S.I., Raven Press (New York, 1982).
All tissues were taken from male albino guinea pigs weighing 400-600 g, anesthetized with urethane 2 g/kg i.p. After exsanguination the trachea was removed and divided into four ring segments (3 mm length). Each ring was suspended by two 30 guage stainless steel wires in a 10 ml jacket tissue bath and attached via 4-0 silk thread to a Grass force displacement transducer (model FT03C, Grass Instrument Co., Quincy, MA), for isometric recording of tension. The smooth muscle was bathed in modified Krebs solution of the following composition: NaCl, 120 mM; KCl, 4.7 mM; CaCl2, 2.5 mM; MgSO4.7H2 O; 1.2 mM; NaHCO3, 25 mM; KH2 PO4 monobasic, 1.2 mM; and dextrose, 10 mM. Tissue baths were maintained at 37.5° C. and constantly bubbled with 95% O2 and 5% CO2. Responses were recorded on an 8 channel and 4 channel Hewlett-Packard (model 7702B and 7754A, respectively) recorder (Hewlett Packard, Paramus, NJ). Tracheal rings were placed under a resting tension of 1.5 g which was determined to be at or near optimal in preliminary experiments. Frequent readjustments of tension were required during the 60 min. stabilization period which followed. Tissues were rinsed at 15 min. intervals.
Cumulative concentration response curves were obtained for each tissue by successive […] in the bath concentration of VIP or potential VIP agonists according to the method of VanRossum J. M., Arch. Int Pharmacodyn, 143, 299-330 (1963). Only one cummulative dose response curve was obtained on a single piece of tissue. To minimize variability between tissues, relaxant responses are expressed as a percentage of the maximum response obtainable to VIP (10^-6 M=100%) added at the end of the concentration response curve. Responses obtained from three tissues were pooled and EC50 values were determined by linear regression.

EC50 [M] | Compound | Relative Potency [%]
3.5e-09 | CCCC[C@H](NC(=O)[C@H](CCC(N)=O)NC(=O)[C@H](CCCCN)NC(=O)[C@H](CCCNC(=N)N)NC(=O)[C@H](CC(C)C)NC(=O)[C@H](CCCCN)NC(=O)[C@@H](NC(=O)[C@H](Cc1ccc(O)cc1)NC(=O)[C@H](CC(N)=O)NC(=O)[C@H](CC(=O)O)NC(=O)[C@@H](NC(=O)[C@H](Cc1ccccc1)NC(=O)[C@@H](NC(=O)[C@H](C)NC(=O)[C@H](CC(=O)O)NC(=O)[C@H](CO)NC(=O)[C@@H](N)Cc1c[nH]cn1)C(C)C)[C@@H](C)O)[C@@H](C)O)C(=O)N[C@@H](C)C(=O)N[C@H](C(=O)N[C@@H](CCCCN)C(=O)N[C@@H](CCCCN)C(=O)N[C@@H](Cc1ccc(O)cc1)C(=O)N[C@@H](CC(C)C)C(=O)N[C@@H](CC(N)=O)C(=O)N[C@@H](CO)C(=O)N[C@H](C(=O)N[C@@H](CC(C)C)C(=O)N[C@H](C(N)=O)[C@@H](C)O)C(C)C)C(C)C [(Lys^12, Nle^17, Val^26, Thr^28)--VIP, (Lys^12, Nle^17, Val^26, Thr^28)VIP] (HELM PEPTIDE1{H.S.D.A.V.F.T.D.N.Y.T.K.L.R.K.Q.[Nle].A.V.K.K.Y.L.N.S.V.L.T.[am]}$$$$V2.0) | 286
1.5e-08 | CCCC[C@H](NC(=O)[C@H](CCC(N)=O)NC(=O)[C@H](CCCCN)NC(=O)[C@H](CCCNC(=N)N)NC(=O)[C@H](CC(C)C)NC(=O)[C@H](CCCCN)NC(=O)[C@@H](NC(=O)[C@H](Cc1ccc(O)cc1)NC(=O)[C@H](CC(N)=O)NC(=O)[C@H](CC(=O)O)NC(=O)[C@@H](NC(=O)[C@H](Cc1ccccc1)NC(=O)[C@@H](NC(=O)[C@H](C)NC(=O)[C@H](CC(=O)O)NC(=O)[C@H](CO)NC(=O)[C@H](Cc1c[nH]cn1)NC(C)=O)C(C)C)[C@@H](C)O)[C@@H](C)O)C(=O)N[C@@H](C)C(=O)N[C@H](C(=O)N[C@@H](CCCCN)C(=O)N[C@@H](CCCCN)C(=O)N[C@@H](Cc1ccc(O)cc1)C(=O)N[C@@H](CC(C)C)C(=O)N[C@@H](CC(N)=O)C(=O)N[C@@H](CO)C(=O)N[C@H](C(=O)N[C@@H](CC(C)C)C(=O)N[C@@H](CC(N)=O)C(N)=O)[C@@H](C)CC)C(C)C [Ac--(Lys^12, Nle^17)--VIP, Ac-(Lys^12, Nle^17)VIP] (HELM PEPTIDE1{[ac].H.S.D.A.V.F.T.D.N.Y.T.K.L.R.K.Q.[Nle].A.V.K.K.Y.L.N.S.I.L.N.[am]}$$$$V2.0) | 67
1e-08 | CCCC[C@H](NC(=O)[C@H](CCC(N)=O)NC(=O)[C@H](CCCCN)NC(=O)[C@H](CCCNC(=N)N)NC(=O)[C@H](CC(C)C)NC(=O)[C@H](CCCNC(=N)N)NC(=O)[C@@H](NC(=O)[C@H](Cc1ccc(O)cc1)NC(=O)[C@H](C)NC(=O)[C@H](CC(=O)O)NC(=O)[C@@H](NC(=O)[C@H](Cc1ccccc1)NC(=O)[C@@H](NC(=O)[C@H](C)NC(=O)[C@H](CC(=O)O)NC(=O)[C@H](CO)NC(=O)[C@@H](N)Cc1c[nH]cn1)C(C)C)[C@@H](C)O)[C@@H](C)O)C(=O)N[C@@H](C)C(=O)N[C@H](C(=O)N[C@@H](CCCCN)C(=O)N[C@@H](CCCCN)C(=O)N[C@@H](Cc1ccc(O)cc1)C(=O)N[C@@H](CC(C)C)C(=O)N[C@@H](CC(N)=O)C(=O)N[C@@H](CO)C(=O)N[C@H](C(=O)N[C@@H](CC(C)C)C(=O)N[C@@H](CC(N)=O)C(N)=O)[C@@H](C)CC)C(C)C [(Ala^9, Nle^17)--VIP, (Ala^9, Nle^17)VIP] (HELM PEPTIDE1{H.S.D.A.V.F.T.D.A.Y.T.R.L.R.K.Q.[Nle].A.V.K.K.Y.L.N.S.I.L.N.[am]}$$$$V2.0) | 100
